Entries after “also recorded” stand apart in the source; their conditions may differ.

For experiment [1], the system named is liver grafts. Nature of the experiment: LDH released into hepatic venous perfusate of ex vivo reperfused liver grafts (liver cell damage). Set-up: species or system rat. The note with it: hemin-treated control, 16-hour cold preservation (Hemin/C16), no ZnPP. On the procedure: As in the case of Example 5, after being cold-preserved for 16 hours, the hemin-treated grafts were reperfused for 30 minutes in the presence of ZnPP using reperfusate containing varying concentrations of bilirubin, and then measured for the amount of lactate dehydrogenase (LDH) released into the hepatic venous perfusate, which was indicative of liver cell damage in the grafts. For use as controls, hemin-untreated grafts receiving 16-hour cold preservation (C16) and hemin-treated grafts receiving 16-hour cold preservation (Hemin/C16) were provided in the absence of ZnPP. The amount of LDH was measured as described in an earlier document (see Document 24). […] The grafts were divided into the following test groups: (a) receiving 5 minute reperfusion with the bilirubin-containing buffer and subsequent 35 minute reperfusion in the absence of bilirubin, (b) receiving 15 minute reperfusion with the bilirubin-containing buffer and subsequent 25 minute reperfusion in the absence of bilirubin, and (c) receiving 40 minute perfusion with the bilirubin-containing buffer. As a control group (d), the cold-preserved grafts received only bilirubin-free perfusion for 40 minutes. Bile output was then measured over time for each group. Further, FIGS. 6(B) and (C) show the relationship between reperfusion time with the bilirubin-containing buffer and bile output from the grafts and the relationship between reperfusion time and venous LDH concentration, respectively.
For orientation: Release of lactate dehydrogenase indicates damage to the cell membrane.

In experiment [2] the test system is liver grafts. Put plainly: Bilirubin-IXα concentration in bile of ex vivo reperfused liver grafts (ELISA, antibody 24G7). Further details: species or system rat. The note with it: hemin-treated, cold-preserved 16 hours, reperfused 30 minutes. On the procedure: The rats injected with hemin or physiological saline were anesthetized by intraperitoneal injection of pentobarbital sodium (40 mg/kg body weight) and a PE-10 catheter for bile sample collection was inserted into the common bile duct of each rat. A 16-gauge catheter was inserted into the portal vein and 20 ml lactated Ringer's solution kept at 4° C. was passed through the catheter. Subsequently, rat livers were perfused with 20 ml University of Wisconsin solution (UW solution) of 4° C., excised and then preserved in the same solution at 4° C. for 16 hours. Since acute oxidative stress would eventually occur, as judged by intracellular hydroperoxide production which occurred concurrently with a reduction of bile formation, a time period of 16 hours was selected for preservation purposes. […]
In the hemin-treated liver grafts from Example 1, after 16-hour cold preservation (Hemin/C16), bile samples were collected from the common bile duct every 5 minutes during 40 minute reperfusion. The bile samples collected at 30 minutes after initiation of reperfusion were also measured for their bilirubin-IXα concentration by enzyme-linked immunosorbent assay detection using the monoclonal antibody 24G7 capable of recognizing both conjugated and unconjugated bilirubin fractions, as described in earlier documents (see Documents 21 and 22). […]

A further experiment has as its system HO-1 protein. Nature of the experiment: HO-1 protein expression in liver grafts by Western blot analysis. Set-up: species or system rat. The note with it: hemin-treated (40 μmol/kg i.p.) vs hemin-untreated grafts. On the procedure:
(§1) Male Wistar rats of 190-230 g were allowed to take pellet chow and water without any restriction and then fasted for 6 hours. Subsequently, the rats were intraperitoneally injected with 40 μmol/kg hemin, a strong HO-1 inducer, and then fasted for 18 hours. […] As a hemin-untreated control, rats injected with physiological saline were fasted for 24 hours and then used for the experiment.
(§2) The rats injected with hemin or physiological saline were anesthetized by intraperitoneal injection of pentobarbital sodium (40 mg/kg body weight) and a PE-10 catheter for bile sample collection was inserted into the common bile duct of each rat. A 16-gauge catheter was inserted into the portal vein and 20 ml lactated Ringer's solution kept at 4° C. was passed through the catheter. Subsequently, rat livers were perfused with 20 ml University of Wisconsin solution (UW solution) of 4° C., excised and then preserved in the same solution at 4° C. for 16 hours. […]
(§3) The grafts prepared in Example 1 were measured for HO-1 protein expression by Western blot analysis, as described in an earlier document (see Document 20). CO fluxes in hepatic venous flow were also measured with a spectrophotometer according to a previously reported method of the inventors (see Document 16). […]
A general note: Immunoblotting shows a protein as a band on a membrane.

Experiment [3] relates to liver grafts. Nature of the experiment: CO fluxes in hepatic venous perfusate of ex vivo liver grafts (spectrophotometer). Set-up: species or system rat. On the procedure:
as §1, §2, §3

The subject of experiment [4] is liver grafts. Nature of the experiment: Bile output of cold-preserved liver grafts during ex vivo reperfusion. Set-up: species or system rat.
Experimental: The rats injected with hemin or physiological saline were anesthetized by intraperitoneal injection of pentobarbital sodium (40 mg/kg body weight) and a PE-10 catheter for bile sample collection was inserted into the common bile duct of each rat. A 16-gauge catheter was inserted into the portal vein and 20 ml lactated Ringer's solution kept at 4° C. was passed through the catheter. Subsequently, rat livers were perfused with 20 ml University of Wisconsin solution (UW solution) of 4° C., excised and then preserved in the same solution at 4° C. for 16 hours. […] After cold preservation for 16 hours, each liver graft was reperfused via the portal vein with 95% oxygen-5% carbon dioxide-saturated Krebs-Henseleit buffer (pH 7.4, 37° C.) at 4 ml/min/g liver in the presence of 30 μmol/L sodium taurocholate (see Document 4).
In the hemin-treated liver grafts from Example 1, after 16-hour cold preservation (Hemin/C16), bile samples were collected from the common bile duct every 5 minutes during 40 minute reperfusion. […] The hemin-untreated grafts receiving no cold preservation (Control) and 16-hour cold preservation (C16) were also provided for the same measurement.
The grafts were reperfused with carbogen-saturated Krebs-Henseleit buffer (pH 7.4, 37° C.) supplemented with bilirubin (Sigma Chemical, Co.) and/or CO in combination with 1 μmol/L ZnPP. […] Similarly, hemin-untreated (a) and hemin-treated (b) grafts were provided in the absence of ZnPP for use as controls.
The same experiment as described in Example 4 was repeated, except that the doses of bilirubin and/or CO were varied. After being cold-preserved for 16 hours, the hemin-treated grafts were reperfused for 30 minutes in the presence of ZnPP using reperfusate containing various concentrations of bilirubin and/or CO, and then measured for the levels of bile output, bile salts and phospholipids in bile from the grafts, which were determined in percentages relative to those obtained by reperfusion in the absence of ZnPP.
The conditions of experiment [5]: hemin-treated rats, n=4; cited from earlier work.

hemin: the “venous LDH release” value in the experiment with liver grafts [1] was “almost complete inhibition”. For the same substance, the “bilirubin fluxes in bile, relative to hemin-untreated group” value with liver grafts [2] was “about 1.5 fold”. Also, the HO-1 expression entry in the experiment on HO-1 protein was “significant increases”. Also, in the experiment with liver grafts [3] (hemin-treated (40 μmol/kg i.p.) vs hemin-untreated grafts), the “venous CO fluxes” value is listed as “significant increases”. The “increase in hepatic venous CO fluxes” value in the experiment with liver grafts [3] (hemin-treated grafts, 16-hour cold preservation with or without 30 minute reperfusion, vs hemin-untreated grafts) is listed as ~3 fold. In addition, the bile output result in the experiment on liver grafts [4] (hemin-treated grafts after 16-hour cold preservation (Hemin/C16) vs hemin-untreated cold-preserved grafts (C16)) is recorded as “higher plateau; also recorded: increase in bile output”. Besides, the “time of bile output recovery after initiation of reperfusion” value with liver grafts [4] (hemin-treated grafts, 16-hour cold preservation (Hemin/C16)) worked out at 10 min. Moreover, the “plasma bilirubin concentration in portal blood” value in experiment [5] was 3.2 ± 0.8 µmol/L.

Values taken from patent publication US20060110804A1, “Method of treating an organ for transplantation” (priority 2004, published 2006).
